Measurements reported in patent US20090232942A1, “Yeast Preparations With Improved Antioxidant Properties and Uses Thereof” (priority 2005, published 2009).
≈ marks a conversion by molar mass, not a printed value.

Legend:
Type in all cases: biochemical
[1] = Reduction of the DPPH radical, inhibition of absorbance at 523 nm (UV-visible); details: for IC50 Mean: n = 3
Description: DPPH. has an intense violet color and this compound remains stable, in the solid form, for years. An antioxidant, proton donor, is capable of reducing this radical (DPPH.→DPPH2), which leads to a decrease in its absorbance. The antioxidant capacity of the compounds is thus determined by evaluating the percentage of inhibition of the absorbance of DPPH. at 523 nm. […] The DPPH. sold by Aldrich and the vitamin C sold by Merck were used. In these tests, the selenium and glutathione concentrations were such that the solution of E2 contained as much selenium and glutathione as that of E1. The method used made it possible to evaluate the overall antioxidant power of the mixture and to compare it to that of reference substances under the same experimental conditions. The antioxidant activity was evaluated by measuring the capacity of the extract to trap the […].

LDL/VLDL [2] = experiment: LAG-TIME method: Cu2+-induced oxidation of LDL/VLDL, absorbance at 234 nm, unbound samples; details: 1 μM of sample; for Lag Time: 70 μg/ml LDL/VLDL, 25 μM Cu2+, 234 nm; for Increase of Lag Time 1 (%): relative to control (LDL alone)
Method: It makes it possible to measure the time required for the added antioxidants to oxidize. […] The effect of the antioxidant present is all the stronger when the lag time is long (in seconds). The kinetic analysis was carried out at 234 nm. The various samples were brought to the same concentration of 1 μm.
The mixture was subjected to Vortex stirring for 5 minutes, then to centrifugation for 10 minutes. […] of supernatant was recovered. This product was ready to use. (sample No. 7 was ground into a fine powder before being mixed with water).
The procedure described in the publication J. Agric. […] This experiment thus made it possible to measure the capacity of the antioxidant tested to inhibit oxidation.
The LDL/VLDL preparation and the various samples were diluted in PBS in order to obtain the desired concentration (70 μg/ml of LDL/VLDL). The control batch contained only the 70 μg/ml LDL/VLDL preparation and PBS. The absorbance of the PBS, the control batch and the other samples was carried out at a wavelength of 234 nm over 10 min on a Genesys 5 machine. Next, 25 μM of Cu^2+ (final concentration in the solution) were added and mixed and the absorbance measurement was carried out every 5 minutes for 6 to 8 hours.

LDL/VLDL [3] = experiment: Bound LAG TIME: samples incubated 2 hours with LDL/VLDL before Cu2+-induced oxidation; details: 1 μM of sample; for Lag Time: bound (2 hours incubation with LDL/VLDL at ambient temperature), 25 μM Cu2+; for Increase of Lag Time 1 (%) / Increase of Lag Time 2 (%): bound; for Increase of Lag Time 1 (%): relative to control (LDL alone); for Increase of Lag Time 2 (%): relative to the unbound sample
Method: The LDLs and the various antioxidants were inoculated so that bonds were created. This phenomenon is supposed to represent what happens in the plasma when an antioxidant having the ability to bind is absorbed.
The various samples and the LDL/VLDL preparation were diluted to 1 μM and 70 μg/ml respectively in PBS, then incubated at ambient temperature for 2 hours. Next, 25 μM of Cu^2+ (final concentration in the solution) were added and mixed and the absorbance measurement was carried out every 5 minutes for 6 to 8 hours. The absorbance of the samples was measured at a wavelength of 234 nm over 10 min on a Genesys 5 machine. The tocopherol was used as a positive control given that it is known for binding to the LDL which is generally a tocopherol carrier in plasma.

Row | Compound | IC50 times higher than that for vitamin C ([1]; 30 min value) | IC50 Mean ([1]; Time 10 min) | IC50 Mean ([1]; Time 20 min) | IC50 Mean ([1]; Time 30 min) | inhibition of LDL oxidation in comparison to the control (in words) (LDL/VLDL [2]) | Lag Time (LDL/VLDL [2]) | Increase of Lag Time 1 (%) (LDL/VLDL [2]) | Lag Time (LDL/VLDL [3]) | Increase of Lag Time 1 (%) (LDL/VLDL [3]) | Increase of Lag Time 2 (%) (LDL/VLDL [3])
1 | N[C@@H](CCC(=O)N[C@@H](CS)C(=O)NCC(=O)O)C(=O)O [Glutathione] | 40 times | 292.97 µg/mL (≈ 953 µM) | 233.84 µg/mL (≈ 761 µM) | 202.13 µg/mL (≈ 658 µM) |  |  |  |  |  | 
2 | O=C1O[C@H]([C@@H](O)CO)C(O)=C1O [Vitamin C, vitamin C] |  | 5.24 µg/mL (≈ 29.8 µM) | 5.20 µg/mL (≈ 29.5 µM) | 5.16 µg/mL (≈ 29.3 µM) |  |  |  |  |  | 
3 | C[Se]CC[C@H](N)C(=O)O [selenomethionine] |  |  |  |  | did not show signs of inhibition | 2805 s | −8% | 6267 s | 106% | 123%
4 | tocopherol |  |  |  |  | high levels of inhibition | 7285 s | 140% | 20940 s | 590% | 187%
